Measured values from article PMC6222487 (Molecules : A Journal of Synthetic Chemistry and Natural …, 2018).
Where two headings read alike, the source gives them in different places.

Columns and labels:
[1] = target: T1, Aβ (1-42) (Homo sapiens, UniProt P05067); experiment: biochemical; details: self-induced aggregation, thioflavin-T; Aβ 20 μM, 37 °C, 24 h; NA = No potent inhibitory activity
T1 construct: Aβ (1-42) peptide (Sigma-Aldrich); purchased Sigma-Aldrich
Protocol: A Thioflavin T-based fluorometric assay was performed in order to investigate the self-induced Aβ (1-42) aggregation. Briefly, compounds to be tested were firstly dissolved in DMSO to obtain a 10 mM solution and then diluted in phosphate buffer (pH 7.4) to provide a final concentration range. […] After incubation, thioflavin-T (5 μM in 50 mM glycine-NaOH buffer, pH 8.0) was added into the above 96-well microplate and the samples were diluted to a final volume of 150 μL. […] Each inhibitor was run in triplicate.

[2] = test system: SH-SY5Y cells; type: cell-based; details: for Cytotoxicity (in words): SH-SY5Y cells, up to 500 μM; for Cell viability: SH-SY5Y, 24 h, CCK-8
Protocol: (§1) To probe whether such a type of target compounds involves cytotoxic effects, we respectively treated HepG2 cells and SH-SY5Y cells with several concentrations of the corresponding compound. Cell viability was determined by a CCK-8 assay.
SH-SY5Y cells (human neuroblastoma cell line from American Type Culture Collection, ATCC, Manassas, VA, USA) were seeded into 96-well plates at a density of 4 × 10^4 cells/mL in Dulbecco’s modified Eagle’s medium (DMEM) supplemented with 10% FBS and 100 U/mL of penicillin/streptomycin (Gino Biomedical Technology Co. LTD., Hangzhou, China), and incubated in a humidified atmosphere containing 5% CO2 at 37 °C. […] After this incubation, 10 μL/well of CCK-8 (5 mg/mL) was added and incubated at 37 °C for 4 h. The optical density (OD) of each well was measured using an Epoch Microplate Spectrophotometer (BioTek Instruments, Inc., Winooski, VT, USA) with a test wavelength of 450, 630 nm.

[3] = target: T2, BuChE (from equine serum) (Equus caballus, UniProt P81908); experiment: biochemical; details: mean ± SEM
T2 construct: purchased Merck & Co; host or cells: equine serum
T2 sequence (P81908 whole entry): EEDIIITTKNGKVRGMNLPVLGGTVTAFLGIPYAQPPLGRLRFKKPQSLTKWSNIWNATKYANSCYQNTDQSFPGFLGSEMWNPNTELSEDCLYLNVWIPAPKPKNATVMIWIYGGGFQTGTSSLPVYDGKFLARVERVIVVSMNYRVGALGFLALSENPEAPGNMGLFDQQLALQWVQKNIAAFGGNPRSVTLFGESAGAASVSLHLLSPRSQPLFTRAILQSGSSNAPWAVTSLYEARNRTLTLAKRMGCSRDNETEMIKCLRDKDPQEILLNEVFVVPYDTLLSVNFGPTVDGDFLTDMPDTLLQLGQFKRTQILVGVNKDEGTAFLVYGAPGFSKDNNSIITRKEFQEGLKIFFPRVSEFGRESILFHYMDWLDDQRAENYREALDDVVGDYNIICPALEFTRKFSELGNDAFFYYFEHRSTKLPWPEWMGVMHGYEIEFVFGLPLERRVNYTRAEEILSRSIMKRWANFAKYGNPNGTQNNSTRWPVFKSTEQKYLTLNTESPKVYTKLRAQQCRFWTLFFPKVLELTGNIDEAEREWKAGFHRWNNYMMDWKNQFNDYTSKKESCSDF
Protocol: (§2) Photometric 96-well microplates made from polystyrene (Thermo Scientific, Waltham, […]. USA) were used for measurement purposes.
(§3) AChE and BuChE inhibitory activities were measured by the spectrophotometric method of Ellman, with slight modification. Briefly, all in vitro assays were performed in 0.1 M NaH2PO4/Na2HPO4 buffer, pH 7.4, using a THERMO Enzyme-labeled Instrument. The enzyme solutions were prepared to obtain 2.0 units/mL in 2.0 mL aliquots. The assay medium (1 mL) consisted of phosphate buffer (pH 7.4), 10 μL of the enzyme, 30 μL of 0.01 M DTNB, and 30 μL of substrate (ATC or BTC) at a concentration of 0.01 M. The test and reference compounds were first dissolved in DMSO (5‰) and fetal bovine serum (1‰), and then diluted in 0.1 M NaH2PO4/Na2HPO4 buffer (pH 7.4) to provide a final concentration range. The inhibitors were added to the assay solution containing enzyme, buffer, and DTNB with pre-incubation for 20 min at 37 °C, prior to the addition of the substrate. The activity was determined by measuring the increase in absorbance at 410 nm at 1 min intervals at 37 °C. The data were calculated according to the method described by Ellman et al. Each concentration was assayed in triplicate. Blanks containing all of the components except AChE were included in the analyses.

[4] = target: T3, AChE (from electric eel) (Electrophorus electricus, UniProt O42275); experiment: biochemical; type: biochemical; details: for IC50: mean ± SEM, NA = No potent inhibitory activity
T3 construct: purchased Merck & Co
T3 sequence (O42275 24-633): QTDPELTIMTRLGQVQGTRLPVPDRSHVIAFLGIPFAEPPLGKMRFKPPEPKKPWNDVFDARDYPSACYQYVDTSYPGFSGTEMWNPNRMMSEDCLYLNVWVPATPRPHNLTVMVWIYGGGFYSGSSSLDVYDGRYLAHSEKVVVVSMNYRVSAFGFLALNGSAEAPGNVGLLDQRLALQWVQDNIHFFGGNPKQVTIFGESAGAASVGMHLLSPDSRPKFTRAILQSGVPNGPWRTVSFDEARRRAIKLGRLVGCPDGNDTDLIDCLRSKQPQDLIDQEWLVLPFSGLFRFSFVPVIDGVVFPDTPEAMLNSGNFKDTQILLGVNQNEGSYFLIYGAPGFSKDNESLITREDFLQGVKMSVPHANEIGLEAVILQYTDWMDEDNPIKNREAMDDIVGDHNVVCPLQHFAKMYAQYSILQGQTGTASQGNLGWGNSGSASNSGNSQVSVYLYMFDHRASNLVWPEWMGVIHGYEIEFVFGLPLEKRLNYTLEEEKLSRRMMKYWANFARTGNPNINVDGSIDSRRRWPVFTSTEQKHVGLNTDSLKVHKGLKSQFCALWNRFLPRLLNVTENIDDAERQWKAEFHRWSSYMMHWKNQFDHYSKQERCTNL
Protocol: as §2, §3

[5] = test system: HepG2 cells; type: cell-based; details: for Cell viability: 24 h, CCK-8; for Cytotoxicity (in words): HepG2 cells, up to 500 μM
Protocol: as §1, with “One of the best documented side-effects of the drug discovery and development of AD is cytotoxicity. To” for “To”, “assay. […].” for “assay.”
HepG2 cells (human hepatocellular liver carcinoma cell line from American Type Culture Collection, ATCC) were cultured in Eagle’s minimum essential medium (EMEM) supplemented with 10% heat-inactivated fetal bovine serum (FBS), and 100 U/mL of penicillin/streptomycin (Gino Biomedical Technology Co. LTD., Hangzhou, China). Cultures were seeded into flasks containing supplemented medium and maintained at 37 °C in a humidified atmosphere of 5% CO2. For assays, cells (1.0 × 10^5 cells/well) were seeded in a 96-well plate in complete medium, the medium was removed after 24 h, and cells were exposed to the increasing concentrations of compounds 8q or 8r (0, 25, 50, 125, 200, 300, 400, and 500 μM) in DMEM with no serum for a further 24 h. Cell survival was measured through a CCK-8 assay. All compounds were dissolved in pure DMSO.

[6] = target: T1, Aβ (1-42); experiment: Aβ (1-42) fibril formation monitored by transmission electron microscopy (TEM); type: biochemical; details: Aβ (1-42) 20 µM, compound 50 µM, 37 °C, 24 h
Protocol: Aβ (1-42) peptide (Sigma-Aldrich) was added into a 96-well microplate and then diluted by phosphate buffer (10 mM, pH 7.4) to provide a concentration of 100 μM solution at 4 °C before use and the sample preparation procedure was the same as that used for the Thioflavin T assay. Aliquots (5 μL) of the samples were placed on a carbon-coated copper/rhodium grid for 2 min at room temperature. Each grid was stained with phosphomolybdic acid solution (3%, 5 μL) for 2 min. After draining off the excess staining solution, the specimen was transferred for imaging by transmission electron microscopy.

[7] = target: T4, AChE (Electrophorus electricus, UniProt O42275); experiment: Kinetic study of AChE inhibition (Lineweaver-Burk plot); type: biochemical; details: substrate 0.1–0.4 mM
T4 construct: purchased Merck & Co
T4 sequence (O42275 24-633): as above
Protocol: The assay solution (100 μL) was afforded by the addition of 30 μL of DTNB (0.01 M), 10 μL of 2 units/mL AChE, and 30 μL of substrate (ATC) to the phosphate buffer (0.1 M, pH 7.0). Three different concentrations of 8q were added to the assay solution with the AChE and pre-incubated for 20 min at 37 °C, followed by the addition of substrate in different concentrations. Kinetic characterization of the hydrolysis of ATC catalysed by AChE was carried out at 410 nm. A parallel control was made with the assay solution of no inhibitor for each time. The plots were assessed by a weighted least square analysis that assumed the variance of V to be a constant percentage of V for the entire data set.
Figure 2 Determination of the inhibitory type of selected compound 8q on AChE. Merged Lineweaver-Burk reciprocal plots of AChE initial velocity with increasing substrate concentrations (0.1–0.4 mM) in the absence or presence of 8q. Lines were derived from a weighted least-squares analysis of data points.

T1 sequence (P05067 672-713): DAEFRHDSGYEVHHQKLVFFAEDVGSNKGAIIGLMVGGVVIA

SMILES | IC50 [1] | Cytotoxicity (in words) [2] | Cell viability ([2]; 25 µM) | Cell viability ([2]; 50 µM) | Cell viability ([2]; 125 µM) | Cell viability ([2]; 200 µM) | Cell viability ([2]; 300 µM) | Cell viability ([2]; 400 µM) | Cell viability ([2]; 500 µM) | IC50 [3] | IC50 [4] | Cell viability ([5]; HepG2, 25 µM) | Cell viability ([5]; HepG2, 50 µM) | Cell viability ([5]; HepG2, 125 µM) | Cell viability ([5]; HepG2, 200 µM) | Cell viability ([5]; HepG2, 300 µM) | Cell viability ([5]; HepG2, 400 µM) | Cell viability ([5]; HepG2, 500 µM) | Cytotoxicity (in words) [5] | other results
Cc1nc(C)c(C(=O)OCCCOC(=O)c2ccccn2)nc1C [Compound 8r, 3-[(Pyridine-2-carbonyl)oxy]propyl 3,5,6-trimethylpyrazine-2-carboxylate] | 49.14 ± 0.025 µM | no obvious cytotoxicity | 94.51 ± 0.45 ^ns percentage of control | 91.46 ± 0.29 ^ns percentage of control | 83.23 ± 0.78 percentage of control | 83.26 ± 2.74 percentage of control | 68.43 ± 0.48 percentage of control | 62.68 ± 0.56 percentage of control | 66.38 ± 1.57 percentage of control | 3300 ± 60 µM | 0.00025 ± 0.00039 µM | 102.83 ± 0.57 ^ns percentage of control | 88.05 ± 1.12 ^ns percentage of control | 81.72 ± 0.87 percentage of control | 71.10 ± 1.06 percentage of control | 71.10 ± 0.80 percentage of control | 68.85 ± 1.11 percentage of control | 68.31 ± 0.53 percentage of control | no obvious cytotoxicity | AChE inhibition potency relative to tacrine ([4]; stronger than tacrine): 293 times
Cc1nc(C)c(/C=C/C(=O)OCCCOC(=O)c2nc(C)c(C)nc2C)nc1C [Compound 8q, 3-{[(2E)-3-(3,5,6-Trimethylpyrazin-2-yl)prop-2-enoyl]oxy}propyl 3,5,6-trimethylpyrazine-2-carboxylate] | 17.36 ± 0.027 µM | no obvious cytotoxicity | 104.30 ± 0.29 ^ns percentage of control | 96.08 ± 0.78 ^ns percentage of control | 80.25 ± 1.53 percentage of control | 72.17 ±0.54 percentage of control | 58.92 ± 0.70 percentage of control | 55.14 ± 0.50 percentage of control | 55.28 ± 0.55 percentage of control | 4040 ± 910 µM | 0.00139 ± 0.00033 µM | 96.81 ± 3.05 ^ns percentage of control | 91.09 ± 0.99 ^ns percentage of control | 81.19 ± 1.48 percentage of control | 64.81 ± 0.54 percentage of control | 66.75 ± 1.11 percentage of control | 68.89 ± 0.51 percentage of control | 70.10 ± 1.98 percentage of control | no obvious cytotoxicity | Aβ amorphous deposits seen by TEM [6]: could obviously alleviate the formation of Aβ amorphous deposits compared with tacrine; Aβ fibril formation seen by TEM [6]: no obvious Aβ fibril was detected; Inhibitory type on AChE [7]: mixed-type inhibitor
